The values below come from patent publication US11273153B2, “MAPK inhibitors” (EverBrilliant Pharma Pty Ltd, priority 2014, dated 2022).

One assay concerns the target p38α MAPK (Homo sapiens (Human), UniProt Q16539). The experiment in a line: Radioactive (33P-labelled ATP) filter binding assay of p38α MAPK activity. The format is biochemical. Here is the method: (§1) A number of compounds were also assessed for the inhibition of p38α MAPK activity (www.kinase-screen.mrc.ac.uk) in which a radioactive (^33P-labelled ATP) filter binding assay was used to directly measure phosphate incorporation. Table 1 summarises the binding affinities of the synthesised compounds to both forms of the enzyme as well as the inhibitory activities against p38α MAPK. By way of enabling a comparison with a non-thiophene compound the biological testing was also carried out for known inhibitor RWJ67657, shown in table 1.

Assay [1] deals with inactive non-phosphorylated p38α MAPK (Homo sapiens (Human), UniProt Q16539). The experiment in a line: Fluorescence polarisation (FP) binding assay, inactive enzyme. Here is the method:
as §1
(§2) FP signals were measured with a PHERAstar microplate reader (BMG Labtech) using black, low-binding half-area 96 well plates (Corning). Each binding data point was carried out in duplicate or triplicate. Data were recorded in millipolarisation (mP) units and measured at an excitation wavelength of 485 nm and an emission wavelength of 520 nm. Tris(hydroxymethyl)aminomethane (Tris) assay buffer was used in all binding experiments and consisted of 10 mM Tris, […] potassium chloride, and 3.5 mM 3-((3-cholamidopropyl)dimethylammonium)-1-propanesulfonate (Chaps) at pH 8.0.
(§3) Test compounds were prepared from dimethylsulfoxide stocks (10 mM). […] Plates were incubated at room temperature for 1 hour and FP signals were recorded. For binding experiments to active p38α MAPK, the FP signals were recorded after 2 hours incubation at room temperature. Data is represented as mean±SEM from two to three independent experiments.

For assay [2], the target named is active phosphorylated p38α MAPK (Homo sapiens (Human), UniProt Q16539). Description: Fluorescence polarisation (FP) binding assay, active enzyme. Here is the method:
as §1, §2, §3

Assay [3] deals with p38α MAPK activation (phosphorylation) by MKK6 (Homo sapiens (Human), UniProt Q16539). Description: In vitro activation assay (phosphorylation of p38α MAPK by MKK6, western blot). The assay is classed as biochemical. The note with it: 10 μM concentration. As for the experimental part:
The assay was analysed by immunoblotting using antibodies against pan p38 MAPK and activated (phosphorylated) p38α MAPK. […] The reaction is initiated by the addition of ATP and MKK6 and proceeds for 15 minutes.
The assay was analysed by immunoblotting using antibodies against pan p38 MAPK and phosphorylated p38α MAPK.
The reaction was started by the addition of active MKK6 (5 ng) and ATP (100 μM). After 30 minutes incubation at room temperature, the reaction was stopped with ethylenediaminetetraacetic acid (EDTA) (10 mM). Phosphorylation of p38 MAPK was analysed by Western blotting.
Reaction samples were mixed 1:1 with Laemmli loading buffer, including β-mercaptoethanol (Biorad). Samples were heated at 95° C. for 5 minutes and 80 ng of protein was resolved using sodium dodecyl sulfate polyacrylamide gel electrophoresis (SDS-PAGE) gels (Biorad) at 200 V for 90 minutes. Proteins were transferred (100 V, 1 hour) to a polyvinylidene difluoride (PVDF) membrane (Merck). Membranes were incubated in blocking buffer (5% skim milk in Tris-buffered saline with Tween 20 (TBST), 1 hour, room temperature) and washed in TBST. Membranes were incubated with primary antibodies against total and phosphorylated p38 MAPK (1:1,000, Cell Signaling Technology) overnight at 4° C. Membranes were washed 4×15 minutes in TBST and probed with a secondary anti-mouse antibody at 1:2,000 dilution for 1 hour at room temperature, followed by washing in TBST (4×15 minutes). Signal detection was done with Western Lightning plus-ECL enhanced chemiluminescent substrate (Perkin Elmer) with the ChemiDoc Imaging System (BioRad).

The mark [4] stands for this setting: Table 1, average of two experiments, read-out: IC50 (μM, mean).
Setting [5] is: read-out: IC50 (inhibitory activity against p38α MAPK).
The mark [6] stands for this setting: Table 1, read-out: Ki (μM, mean ± SEM) inactive p38α.
Where [7] appears, read: Table 6, read-out: Ki ± SEM (μM) to inactive p38α.
Where [8] appears, read: Table 1, read-out: Ki (μM, mean ± SEM) active p38α.
[9] abbreviates: Table 6, read-out: Ki ± SEM (μM) to active p38α.
Where [10] appears, read: Table 5, read-out: Ki ± SEM (μM) to inactive p38α MAPK.
[11] abbreviates: Table 5, read-out: Ki ± SEM (μM) to active p38α MAPK.

Like-named read-outs stand apart in the source and are kept apart here.

inactive non-phosphorylated p38α MAPK, sequence (Q16539 whole entry): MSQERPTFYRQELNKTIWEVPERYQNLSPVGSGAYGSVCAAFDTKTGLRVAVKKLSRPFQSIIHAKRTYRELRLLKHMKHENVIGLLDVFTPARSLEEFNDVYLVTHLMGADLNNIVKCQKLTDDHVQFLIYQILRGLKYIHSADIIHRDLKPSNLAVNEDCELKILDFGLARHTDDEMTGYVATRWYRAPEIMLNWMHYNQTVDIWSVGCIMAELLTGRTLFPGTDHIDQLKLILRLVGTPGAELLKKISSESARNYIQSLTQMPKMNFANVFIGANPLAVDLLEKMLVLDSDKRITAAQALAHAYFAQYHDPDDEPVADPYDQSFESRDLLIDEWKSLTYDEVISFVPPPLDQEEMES
p38α MAPK, sequence (Q16539 whole entry): as above
active phosphorylated p38α MAPK, sequence (Q16539 whole entry): as above
p38α MAPK activation (phosphorylation) by MKK6, sequence (Q16539 whole entry): as above

Consider `Fc1ccc(-c2scc(CCCc3ccccc3)c2-c2ccncc2)cc1` [Compound 4.18, 4-(2-(4-Fluorophenyl)-4-(3-phenylpropyl)thiophen-3-yl)pyridine], for which the IC50 at p38α MAPK (setting [4]) was 0.27 µM; on p38α MAPK (Table 6, read-out: IC50 (mean)), 0.27 µM; at p38α MAPK (setting [5]) it was 0.27 µM. The inhibition constant Ki stood at 1.5 ± 0.5 µM in assay [1] (setting [6]), 1.5 ± 0.5 µM in assay [1] (setting [7]), 0.72 ± 0.03 µM in assay [2] (setting [8]) and 0.72 ± 0.03 µM in assay [2] (setting [9]).
Consider `OCCC#Cc1nc(-c2ccc(F)cc2)c(-c2ccncc2)n1CCCc1ccccc1` [RWJ67657, reference compound], for which the Ki in assay [1] (setting [6]) came to 0.21 ± 0.04 µM; in assay [1] (setting [10]), 0.21 ± 0.04 µM; in assay [1] (setting [7]), 0.21 ± 0.04 µM; in assay [2] (setting [8]), 0.013 ± 0.006 µM; in assay [2] (setting [11]) it was 0.013 ± 0.006 µM; in assay [2] (setting [9]), 0.013 ± 0.006 µM. Further, the “inhibition of p38α MAPK activation (phosphorylation)” value in assay [3] is “inhibition of p38α MAPK activation”.
`OCCC#Cc1sc(-c2ccc(F)cc2)c(-c2ccncc2)c1-c1ccc(O)cc1` [Compound 3.54, 4-(5-(4-Fluorophenyl)-2-(4-hydroxybut-1-yn-1-yl)-4-(pyridin-4-yl)thiophen-3-yl)phenol]: the Ki is above 10 µM in assay [1] (setting [7]) and 3.4 µM in assay [2] (setting [9]).
With `OCCC#Cc1sc(-c2ccc(F)cc2)c(-c2ccncc2)c1-c1ccc(CO)cc1` [Compound 3.34, 4-(5-(4-Fluorophenyl)-3-(4-(hydroxymethyl)phenyl)-4-(pyridin-4-yl)thiophen-2-yl)but-3-yn-1-ol], the inhibitory constant (Ki) in assay [1] (setting [7]) was above 10 µM; in assay [2] (setting [9]) it was 3.5 µM.
On the same counts, the results for `OCCC#Cc1sc(-c2ccc(F)cc2)c(-c2ccncc2)c1-c1cccc(CO)c1` [Compound 3.33, 4-(5-(4-Fluorophenyl)-3-(3-(hydroxymethyl)phenyl)-4-(pyridin-4-yl)thiophen-2-yl)but-3-yn-1-ol] are above 10 µM and 1.3 ± 0.2 µM.
For the molecule `OC(CCc1ccccc1)c1csc(-c2ccc(F)cc2)c1-c1ccncc1` (stereo not drawn) [Compound 4.17, 1-(5-(4-Fluorophenyl)-4-(pyridin-4-yl)thiophen-3-yl)-3-phenylpropan-1-ol], the IC50 at p38α MAPK (setting [4]) turned out to be 0.26 µM; at p38α MAPK (Table 6, read-out: IC50 (mean)) it was 0.26 µM; on p38α MAPK (setting [5]), 0.26 µM. Besides, the Ki in assay [1] (setting [6]) was 1.9 ± 0.3 µM; in assay [1] (setting [7]), 1.9 ± 0.3 µM; in assay [2] (setting [8]) it was 0.99 ± 0.09 µM; in assay [2] (setting [9]) it was 0.99 ± 0.09 µM.
Regarding `O=C(c1ccco1)c1cc(-c2ccncc2)c(-c2ccc(F)cc2)s1` [Compound 5.17, (5-(4-Fluorophenyl)-4-(pyridin-4-yl)thiophen-2-yl) (furan-2-yl)methanone], the Ki came to 5.9 ± 0.7 µM in assay [1] (setting [10]), 5.9 ± 0.7 µM in assay [1] (setting [7]), 2.5 µM in assay [2] (setting [11]) and 2.5 µM in assay [2] (setting [9]).
As for `OCCC#Cc1sc(-c2ccc(F)cc2)c(-c2ccncc2)c1C(O)CCc1ccccc1` (stereo not drawn) [Compound 4.6, 4-(5-(4-Fluorophenyl)-3-(1-hydroxy-3-phenylpropyl)-4-(pyridin-4-yl)thiophen-2-yl)but-3-yn-1-ol], the half-maximal inhibitory concentration (IC50) came to 4.72 µM on p38α MAPK (setting [4]); 4.72 µM at p38α MAPK (Table 6, read-out: IC50 (mean)); 4.72 µM on p38α MAPK (setting [5]). The inhibition constant (Ki) was above 10 µM in assay [1] (setting [6]), above 10 µM in assay [1] (setting [7]), 3.85 µM in assay [2] (setting [8]) and 3.9 µM in assay [2] (setting [9]).
Regarding `CC(=O)Nc1ccc(-c2c(C#CCCO)sc(-c3ccc(F)cc3)c2-c2ccncc2)cc1` [Compound 3.42, N-(4-(5-(4-fluorophenyl)-2-(4-hydroxybut-1-yn-1-yl)-4-(pyridin-4-yl)thiophen-3-yl)phenyl)acetamide], the inhibition constant Ki in assay [1] (setting [7]) and in assay [2] (setting [9]) was above 10 µM throughout.
For the molecule `NC(=O)c1cccc(-c2c(C#CCCO)sc(-c3ccc(F)cc3)c2-c2ccncc2)c1` [Compound 3.35, 3-(5-(4-Fluorophenyl)-2-(4-hydroxybut-1-yn-1-yl)-4-(pyridin-4-yl)thiophen-3-yl)benzamide], the values for the Ki in assay [1] (setting [7]) and in assay [2] (setting [9]) were above 10 µM and 2.2 ± 0.3 µM, respectively.
On the same counts, the results for `O=C(NCCO)c1ccc(-c2c(C#CCCO)sc(-c3ccc(F)cc3)c2-c2ccncc2)cc1` [Compound 3.38, 4-(5-(4-Fluorophenyl)-2-(4-hydroxybut-1-yn-1-yl)-4-(pyridin-4-yl)thiophen-3-yl)-N-(2-hydroxyethyl)benzamide] are above 10 µM and 1.7 ± 0.2 µM.
On the same counts, the results for `O=C(Nc1cccc(-c2c(C#CCCO)sc(-c3ccc(F)cc3)c2-c2ccncc2)c1)c1ccccc1` [Compound 3.43, N-(3-(5-(4-fluorophenyl)-2-(4-hydroxybut-1-yn-1-yl)-4-(pyridin-4-yl)thiophen-3-yl)phenyl)benzamide] are above 10 µM and above 10 µM.
As to `Fc1ccc(-c2sc(-c3c(F)c(F)nc(F)c3F)cc2-c2ccncc2)cc1` [Compound 5.19, 2,3,5,6-Tetrafluoro-4-(5-(4-fluorophenyl)-4-(pyridin-4-yl)thiophen-2-yl)pyridine], the inhibition constant (Ki) amounted to 3.01 ± 0.03 µM in assay [1] (setting [10]); 3.01 ± 0.03 µM in assay [1] (setting [7]); 0.8 ± 0.1 µM in assay [2] (setting [11]); 0.8 ± 0.1 µM in assay [2] (setting [9]); 0.8 µM in assay [2] (read-out: Ki to active p38α MAPK).
As to `CCOC(=O)c1cc(-c2ccncc2)c(-c2ccc(F)cc2)s1` [Compound 5.11, Ethyl 5-(4-fluorophenyl)-4-(pyridin-4-yl)thiophene-2-carboxylate], the inhibitory constant (Ki) in assay [1] (setting [10]) came out at 6 ± 1 µM; in assay [1] (setting [7]), 6 ± 1 µM; in assay [2] (setting [11]) it was 2.2 µM; in assay [2] (setting [9]), 2.2 µM.
Turning to `COC(=O)c1ccc(-c2c(C#CCCO)sc(-c3ccc(F)cc3)c2-c2ccncc2)cc1` [Compound 3.30, Methyl 4-(5-(4-fluorophenyl)-2-(4-hydroxybut-1-yn-1-yl)-4-(pyridin-4-yl)thiophen-3-yl)benzoate], the Ki in assay [1] (setting [7]) and in assay [2] (setting [9]) was above 10 µM each time.
On to `Cc1cccc(-c2c(C#CCCO)sc(-c3ccc(F)cc3)c2-c2ccncc2)c1` [Compound 3.48, 4-(5-(4-Fluorophenyl)-4-(pyridin-4-yl)-3-(m-tolyl)thiophen-2-yl)but-3-yn-1-ol], for which the inhibitory constant (Ki) in assay [1] (setting [7]) and in assay [2] (setting [9]) was above 10 µM in each case.
Turning to `OCCC#Cc1sc(-c2ccc(F)cc2)c(-c2ccncc2)c1-c1ccc(F)cc1` [Compound 3.50, 4-(3,5-bis(4-Fluorophenyl)-4-(pyridin-4-yl)thiophen-2-yl)but-3-yn-1-ol], the Ki in assay [1] (setting [7]) was above 10 µM; in assay [2] (setting [9]) it was 0.9 ± 0.4 µM.
On the same counts, the results for `CC(=O)Nc1cccc(-c2c(C#CCCO)sc(-c3ccc(F)cc3)c2-c2ccncc2)c1` [Compound 3.41, N-(3-(5-(4-fluorophenyl)-2-(4-hydroxybut-1-yn-1-yl)-4-(pyridin-4-yl)thiophen-3-yl)phenyl)acetamide] are 2.6 ± 0.6 µM and 2 ± 0.1 µM.
Turning to `OCCCC#Cc1cc(-c2ccncc2)c(-c2ccc(F)cc2)s1` [Compound 5.3, 5-(5-(4-Fluorophenyl)-4-(pyridin-4-yl)thiophen-2-yl)pent-4-yn-1-ol], the Ki in assay [1] (setting [10]) was determined as 1.7 ± 0.2 µM; in assay [1] (setting [7]) it was 1.7 ± 0.2 µM; in assay [2] (setting [11]) it was 0.8 ± 0.04 µM; in assay [2] (setting [9]) it was 0.8 ± 0.04 µM.
In the case of `NC(=O)c1ccc(-c2c(C#CCCO)sc(-c3ccc(F)cc3)c2-c2ccncc2)cc1` [Compound 3.36, 4-(5-(4-Fluorophenyl)-2-(4-hydroxybut-1-yn-1-yl)-4-(pyridin-4-yl)thiophen-3-yl)benzamide], the Ki in assay [1] (setting [7]) is above 10 µM; in assay [2] (setting [9]) it was 2 ± 1 µM.
